Experimental data taken from US6504058B1 (priority 1997, dated 2003).

Legend:
Botrytis cinerea = experiment: Test E: gray mold, preventive spray on cucumber seedlings, disease rating; format: in vivo, Botrytis cinerea (on cucumber seedlings); settings: 200 ppm test suspension sprayed to run-off (equivalent to 500 g/ha) on cucumber seedlings; 100 = 100% disease control, 0 = no control; # = significant activity
How it was run: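 Cucumber seedlings sprayed to run-off with 200 ppm suspension (equivalent to 500 g/ha), inoculated next day with B. cinerea spores. Kept 48 h saturated at 20 °C, then 5 days in growth chamber at 20 °C; disease control rated 0–100 relative to controls.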

Pyricularia oryzae = format: in vivo, Pyricularia oryzae (on rice seedlings); settings: 200 ppm test suspension sprayed to run-off (equivalent to 500 g/ha) on rice seedlings; 100 = 100% disease control, 0 = no control; # = significant activity
Puccinia recondita = experiment: Test B: wheat leaf rust, preventive spray on wheat seedlings, disease rating; format: in vivo, Puccinia recondita (on wheat seedlings); settings: 200 ppm test suspension sprayed to run-off (equivalent to 500 g/ha) on wheat seedlings; 100 = 100% disease control, 0 = no control; # = significant activity
How it was run: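 Wheat seedlings were sprayed to run-off with 200 ppm suspensions (≈500 g/ha; 3% acetone, 250 ppm Trem 014) and inoculated with Puccinia recondita spores the next day. Plants were held 24 h saturated at 20 °C, then 6 days at 20 °C. Disease control was rated 0-100 relative to untreated controls.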

Phytophthora infestans = format: in vivo, Phytophthora infestans (on tomato seedlings); settings: 200 ppm test suspension sprayed to run-off (equivalent to 500 g/ha) on tomato seedlings; 100 = 100% disease control, 0 = no control; # = significant activity
[1] = tested on: Erysiphe graminis f. sp. tritici; experiment: Test A: wheat powdery mildew, preventive spray on wheat seedlings, disease rating; format: in vivo, Erysiphe graminis f. sp. tritici (on wheat seedlings); settings: 200 ppm test suspension sprayed to run-off (equivalent to 500 g/ha) on wheat seedlings; 100 = 100% disease control, 0 = no control; # = significant activity
How it was run: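 Compounds at 200 ppm (acetone 3%, 250 ppm Trem 014 in water; equivalent to 500 g/ha) sprayed to run-off on wheat seedlings, inoculated with spore dust the following day. Plants held at 20° C. for 7 days, then rated 0–100% disease control relative to untreated controls.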

Row | SMILES | Test E disease control rating (gray mold) (Botrytis cinerea) | Test C disease control rating (rice blast) (Pyricularia oryzae) | Test B disease control rating (wheat leaf rust) (Puccinia recondita) | Test D disease control rating (potato and tomato late blight) (Phytophthora infestans) | Test A disease control rating (wheat powdery mildew) [1]
1 | CC(COc1cc(F)ccc1Cl)NC(=O)C1(C)CC(C)(Br)C1 (centres unmarked) [compound 56] | 0 (a rating of 0 indicates no disease control (relative to the controls)) | 100# (a rating of 100 indicates 100% disease control) | 0 (a rating of 0 indicates no disease control (relative to the controls)) | 0 (a rating of 0 indicates no disease control (relative to the controls)) | 99# %
2 | CC(COc1cc(F)ccc1C#N)NC(=O)C1(C)CC(C)(Cl)C1 (centres unmarked) [compound 43] | 19% | 0 (a rating of 0 indicates no disease control (relative to the controls)) | 0 (a rating of 0 indicates no disease control (relative to the controls)) | 20% | 0 (a rating of 0 indicates no disease control (relative to the controls))
3 | CC(COc1cc(F)ccc1F)NC(=O)C1(C)CC(C)(Cl)C1 (centres unmarked) [Compound 30] | 94# % | 100# (a rating of 100 indicates 100% disease control) | 0 (a rating of 0 indicates no disease control (relative to the controls)) | 0 (a rating of 0 indicates no disease control (relative to the controls)) | 0 (a rating of 0 indicates no disease control (relative to the controls))
4 | CC(NC(=O)C1CC(C)(Cl)C1)C(Oc1cc(F)ccc1F)c1ccccc1 (centres unmarked) [compound 31] | 0 (a rating of 0 indicates no disease control (relative to the controls)) | 90# % | 0 (a rating of 0 indicates no disease control (relative to the controls)) | 0 (a rating of 0 indicates no disease control (relative to the controls)) | 0 (a rating of 0 indicates no disease control (relative to the controls))
5 | CC(COc1cc(Cl)ccc1C#N)NC(=O)C1(C)CC(C)(Cl)C1 (centres unmarked) [compound 45] | 0 (a rating of 0 indicates no disease control (relative to the controls)) | 99# % | 0 (a rating of 0 indicates no disease control (relative to the controls)) | 61% | 0 (a rating of 0 indicates no disease control (relative to the controls))
6 | CC(COc1ccc(F)cc1C#N)NC(=O)C1(C)CC(C)(Cl)C1 (centres unmarked) [compound 39] | 47% | 97# % | 25% | 45% | 0 (a rating of 0 indicates no disease control (relative to the controls))
7 | CC(NC(=O)C1CC(C)(Cl)C1)C(Oc1cc(F)ccc1F)c1ccccc1 (centres unmarked) [compound 32] | 0 (a rating of 0 indicates no disease control (relative to the controls)) | 52% | 0 (a rating of 0 indicates no disease control (relative to the controls)) | 0 (a rating of 0 indicates no disease control (relative to the controls)) | 59%
